# Several values for one entry are separate records, joined by “and”; a condition that tells them apart may be missing. Equal entries are not always repeated.
# Assays:
# [1] = tested on: S. aureus wild type and hssR mutants; test: Extracellular protein profile by SDS-PAGE; type: cell-based, Staphylococcus aureus; settings: S. aureus wild type and hssR mutants grown with or without plectasin overnight at 37°C in TSB; data not shown
# Protocol: Prewarmed TSB and BHI (25 ml) in a 250 ml Erlenmeyer flask was inoculated with S. aureus strains and L. monocytogenes strains, respectively. These flasks were grown with and without plectasin at 37°C overnight (≈ 17 h) with shaking. The next morning, the exact absorbance at 600 nm of the cultures was measured, and 15 ml of culture was centrifuged to precipitate the cells (6 000 RPM; 7 min; 0°C). The supernatant was transferred to a 50 ml Blue cap bottle (placed in an ice/water bath), and the extracellular proteins were precipitated by adding one volume of ice-cold 96% EtOH and left in the refrigerator overnight for proteins to precipitate. Precipitated proteins were collected by centrifugation (11,000 RPM; 30 min; 0°C). Protein pellets were suspended in a volume of 50 mM Tris-HCl (pH 6.8) adjusted to the original absorbance of the overnight culture so that 15 ml of overnight culture with absorbance at 600 nm of 5.0 was suspended in 0.8 ml of 50 mM Tris-HCl (pH 6.8). A sample of 15 μl of the protein extracts was analysed on NuPAGE® 4-12% Bis-Tris gels (Invitrogen) using the X Cell SureLock® Mini-Cell system (Invitrogen) as recommended by the supplier. The gels were Coomassie stained using GelCode® Blue Stain Reagent (Pierce).
# [2] = tested on: S. aureus 8325-4 hssR mutant; test: Growth in TSB with plectasin and/or hemin; type: cell-based, Staphylococcus aureus; settings: plectasin 35 μg/ml, 37°C, absorbance at 600 nm, transduced 8325-4 hssR mutant
# Protocol: (§1) Overnight cultures of S. aureus were diluted to an absorbance at 600 nm of 0.05 in TSB with and without 4 μM hemin and/or 35 μg/ml plectasin and grown at 37°C. Measurements of the absorbance were made every 30 minutes.
# [3] = tested on: S. aureus 8325-4 wild type; test: Growth in TSB with plectasin and/or hemin; type: cell-based, Staphylococcus aureus; settings: plectasin 35 μg/ml, 37°C, absorbance at 600 nm
# Protocol: as §1
# [4] = tested on: L. monocytogenes; test: ATP leakage (intracellular and extracellular ATP, bioluminescence); type: cell-based, Listeria monocytogenes; settings: L. monocytogenes, 500 μg/ml peptide, 50 mM HEPES pH 7.0 with 0.2% glucose, vs peptide dilution buffer
# Protocol: L. monocytogenes and S. aureus were grown in TSB at 37°C. Bacteria were harvested (10 min at 3000 RPM) at mid-exponential phase (absorbance at 546 nm of 2.5 ± 0.2 and 1.0 ± 0.2 for S. aureus and L. monocytogenes, respectively), washed once in 50 mM potassium phosphate buffer pH 7.0 and once in 50 mM HEPES buffer pH 7.0. The pellet was resuspended in 50 mM HEPES pH 7.0 to a final absorbance at 546 nm of 10. Bacteria were stored on ice and used within 5 hours. […] ATP was determined using a bioluminescence kit (Sigma, FLAA-1KT) and a BioOrbit 1253 luminometer. Total ATP content was determined by rapidly permeabilising 20 μl cell suspension with 80 μl dimethyl sulfoxide. The cell suspension was diluted in 4.9 ml sterile water, and ATP content was determined in 100 μl of the preparation as described by the manufacturer. To determine the extracellular ATP concentration, the 20 μl cell suspension was mixed with 80 μl sterile water and analyzed as described above. Intracellular ATP concentrations were calculated by using the intracellular volumes of 0.85 and 1.7 μm^3 for S. aureus and L. monocytogenes, respectively. The number of cells in suspension was determined by plate spreading.
# [5] = tested on: S. aureus hssR mutants; test: MIC of hssR mutants compared to wild type; type: cell-based, Staphylococcus aureus; settings: ratio of MIC, S. aureus hssR response regulator mutants vs wild type, regardless of the genetic background
# Protocol: Minimal inhibitory concentrations (MIC) of plectasin, eurocin, protamine, novicidin, and novispirin G10 were determined using a microbroth dilution method. Colonies from a BHI plate incubated overnight at 37 °C were suspended in MHB pH 7.4 to an absorbance at 546 nm of 0.11-0.12 at 546 nm (approx. 1.0 × 10^8 CFU/ml) and diluted in MHB to a concentration of 5.0 × 10^5 CFU/ml. Ninety μl of bacterial suspension was incubated with 10 μl of peptide solution in polypropylene 96-well plates (Nunc, 442587) for 18-24 h at 37°C. The peptide solutions were made fresh on the day of assay. The range of concentrations assayed were 0.25-256 μg/ml for plectasin and eurocin, 0.125-128 μg/ml for protamine and novispirin G10, and 0.031-32 μg/ml for novicidin. MIC was the lowest peptide concentration at which visual growth was inhibited.
# [6] = tested on: S. aureus 8325-4 hssR::bursa; test: In vitro bacterial killing kinetics; type: cell-based, Staphylococcus aureus; settings: plectasin 1× MIC, TSB, 37°C, CFU after 1, 3 and 5 hours; 8325-4 hssR::bursa mutant
# Protocol: (§2) Overnight cultures of S. aureus wild type […], 8325-4 hssR::bursa and 8325-4 hssR::bursa/pRMC2-hssRS were diluted 1000 fold in TSB and grown 2 hours at 37°C. Samples were taken to time T = 0 and plated for CFU determination. Plectasin (1× MIC) was added, and samples were withdrawn after 1,3 and 5 hours growth at 37°C and plated for CFU determination.
# [7] = tested on: S. aureus 8325-4 wild type; test: In vitro bacterial killing kinetics; type: cell-based, Staphylococcus aureus; settings: plectasin 1× MIC, TSB, 37°C, CFU after 1, 3 and 5 hours
# Protocol: as §2
# [8] = tested on: mice, human keratinocytes and erythrocytes; settings: in mice and on human keratinocytes and erythrocytes; cited from earlier work
# Excerpt: Recently, the antimicrobial peptide, plectasin isolated from a saprophytic fungus, was described.
# [9] = tested on: S. aureus 15981 wild type; test: Growth in TSB with plectasin; type: cell-based, Staphylococcus aureus; settings: plectasin 35 μg/ml, 37°C, absorbance at 600 nm
# Protocol: as §1
# [10] = tested on: S. aureus 8325-4 hssR::bursa transposon mutant; test: Growth in TSB with plectasin; type: cell-based, Staphylococcus aureus; settings: plectasin 35 μg/ml, 37°C, absorbance at 600 nm
# Protocol: as §1
# [11] = tested on: L. monocytogenes; test: MIC of plectasin stated in the text; type: cell-based, Listeria monocytogenes; settings: difference in MIC values between the strains
smiles,measurement,setting,value
CC[C@H](C)[C@@H]1NC(=O)[C@H](CO)NC(=O)[C@H](CCCCN)NC(=O)[C@@H]2CSSC[C@@H](C(=O)N[C@@H](Cc3ccc(O)cc3)C(=O)O)NC(=O)[C@H](CCCCN)NC(=O)[C@@H]3CSSC[C@H](NC(=O)[C@H](CCC(N)=O)NC(=O)[C@H](CCSC)NC(=O)[C@H](CC(=O)O)NC(=O)[C@H](CC(=O)O)NC(=O)[C@H](CCC(=O)O)NC(=O)[C@H](CC(=O)O)NC(=O)[C@H](Cc4c[nH]c5ccccc45)NC(=O)[C@@H]4CCCN4C(=O)CNC(=O)[C@H](CC(N)=O)NC(=O)[C@@H](NC(=O)CNC(=O)[C@H](Cc4ccccc4)NC(=O)CN)CSSC[C@H](NC(=O)[C@H](Cc4ccc(O)cc4)NC(=O)CNC(=O)CNC(=O)[C@H](CCCCN)NC(=O)[C@H](Cc4ccc(O)cc4)NC(=O)CNC(=O)[C@H](CCCCN)NC1=O)C(=O)N[C@@H](C)C(=O)N[C@@H](CCCCN)C(=O)NCC(=O)NCC(=O)N[C@@H](Cc1ccccc1)C(=O)N[C@@H](C(C)C)C(=O)N3)C(=O)N[C@@H](Cc1c[nH]cn1)C(=O)N[C@@H](CC(N)=O)C(=O)N[C@@H](Cc1c[nH]cn1)C(=O)N2 [plectasin],Abundance of extracellular proteins,[1],no difference in the abundance of extracellular proteins
same,Growth in the presence of plectasin,[2],hardly affected the growth
same,Growth in the presence of plectasin,[3],inhibited the growth
same,ATP leakage (intracellular ATP concentration),[4],remained at the same level as the controls
same,Increased resistance of hssR mutants compared to the wild type,[5],2 to 4 fold and 2-4 fold
same,Kinetics of bacterial killing in vitro,[6],killed slower than the wild type
same,Kinetics of bacterial killing in vitro,[7],killed rapidly
same,Toxicity,[8],very low toxicity
same,Growth in the presence of plectasin,[9],inhibited the growth
same,Growth in the presence of plectasin,[10],hardly affected the growth
same,Tolerance of L. monocytogenes compared to S. aureus,[11],4-8 fold

# — publication PMC3001719, “The heme sensing response regulator HssR in Staphylococcus aureus but not the homologous RR23 in Listeria monocytogenes modulates susceptibility to the antimicrobial peptide plectasin” (BMC Microbiology, 2010)
